This note sets out measurements from patent publication US12479803B2, “Antimalarial compounds” (UNIVERSITY OF CENTRAL FLORIDA RESEARCH FOUNDATION, INC., priority 2019, dated 2025).

The subject of data set [1] is P. falciparum 3D7 strain (CQ-sensitive). In words: In vitro antiplasmodium activity, 3D7 strain. It counts as cell-based, Plasmodium falciparum. How it is done: (§1) A set of 104 new styrylquinoline derivatives were synthesized and investigated for in vitro their antimalarial activity. To test antimalarial activities, different dilutions of compounds were added to P. falciparum culture. Following 72 h incubation at 37° C. in an atmosphere containing 5% CO2, the inhibitory property of the compounds were determined by SYBR Green I fluorescence assay. Meanwhile, SARs studies were conducted.

The subject of data set [2] is CQ-resistant (Dd2) strain of P. falciparum. In words: In vitro antiplasmodial activity, SYBR Green I fluorescence assay, Dd2 strain. It counts as cell-based, Plasmodium falciparum. How it is done:
as §1
The SAR studies were focused on improving the in vitro activity of 2-arylvinylquinolines against the CQ-resistant Pf Dd2 strain.

The next data set concerns HepG2. In words: Cytotoxicity assay using MTS in human hepatocytes. It counts as cell-based. Conditions: for SI, selectivity index = [IC50 (HepG2)/IC50 (Dd2)]: HepG2 versus Dd2.
Data set [3] in a line: In vitro microsomal turnover assay (metabolic stability). How it is done:
Selectivity of compounds were determined by cytoxicity assay using MTS [(3-(4,5-dimethylthiazol-2-yl)-5-(3-carboxymethoxyphenyl)-2-(4-sulfophenyl)-2H-tetrazolium) in human hepatocytes. The metabolic stability of compounds was determined in mouse liver microsomes using an NADPH-regenerating system. The aqueous solubility at pH 7.4 was determined by UV-visible absorption based method. The permeability was assessed by the in vitro double-sink parallel artificial membrane permeability assay 52 that is a model for the passive transport from the gastrointestinal tract into the blood stream.
To assess the metabolic stability, the selected compounds were subjected to an in vitro microsomal turnover assay with mouse liver microsomal preparations. This assay determines the percentage of the parent compound residues after 60 min incubation (Table 7).

Data set [4] deals with late stage (IV-V) gametocytes of 3D7 expressing luciferase parasite. In words: In vitro gametocytocidal activity, late stage. It counts as cell-based, Plasmodium falciparum. Conditions: Plasmodium falciparum, 3D7; late stage gametocytes; means and SEMs of three experiments. The text has this: (§2) Late stage (IV-V) gametocytes are more refractory to antimalarial drugs than early-stage gametocytes and blood stage parasites, and thus fewer compounds are effective against late stage Pf gametocytes. […] FIGS. 4A and 4B are an examples according to various embodiments illustrating results showing the activity of compound 24 on gametocyte stages, based on an evaluation of the viability of gametocytes after the exposure of compound 24 on early (A) and late (B) gametocytes stages of 3D7 expressing luciferase parasite. In FIGS. 4A and 4B, EC50 data represent the means and SEMs of three experiments. Therefore, arylvinylquinolines represented good leads as new antimalarials with promising dual stage (blood and gametocyte) activity.

Data set [5] relates to early stage (I-III) gametocytes of 3D7 expressing luciferase parasite. In words: In vitro gametocytocidal activity, early stage. The data set is classed as cell-based, Plasmodium falciparum. The conditions noted are these: Plasmodium falciparum, 3D7, read-out: Early stage IC50 (nM).
Text: as §2

[6] abbreviates: CQ-resistant (Dd2) strain, 72 h incubation, read-out: EC50 (nmol).
The mark [7] stands for this setting: Table 6A, unit not given (text gives nM), footnote calls it IC50, read-out: Antiplasmodium activity Dd2 (converted).
[8] abbreviates: Table 6B, unit inferred, footnote IC50 (HepG2), read-out: Cytotoxic activity HepG2 (converted).
The mark [9] stands for this setting: mouse liver microsomes, 60 min incubation.
[10] abbreviates: Table 6A, nM, footnote calls it IC50, read-out: Antiplasmodium activity 3D7 (converted).

Where two headings read alike, the source gives them in different places.

For the molecule `CN(C)CCNc1cc(/C=C/c2ccccc2F)nc2ccc(Cl)cc12` [Compound 30], the EC50 was 55.9 ± 9.5 nM in data set [1] (3D7 strain, read-out: EC50); 26 ± 0.9 nM in data set [2] (setting [6]); 26 ± 0.9 nM in data set [2] (Dd2 strain, read-out: EC50); 26 nM in data set [2] (setting [7]). Besides, the “RI, resistance index = [IC50 (Dd2)/IC50 (3D7)]” value (shortened to “RI, resistance index =”) in data set [2] (Dd2 versus 3D7) is listed as 0.5. The molecule also gave an IC50 in the data set with HepG2 of 4830 nM. For the same molecule, the “SI, selectivity index = [IC50 (HepG2)/IC50 (Dd2)]” value (“SI, selectivity index =” for short) in the data set with HepG2 amounted to 186.
`CN(C)CCNc1cc(/C=C/c2cccc(F)c2)nc2ccc(Cl)cc12` [Compound 31]: the EC50 in data set [1] (3D7 strain, read-out: EC50) is 23 ± 2.8 nM; in data set [2] (setting [6]), 5.9 ± 1.4 nM; in data set [2] (setting [7]) it was 5.9 nM. Moreover, the “RI, resistance index =” value in data set [2] (Dd2 versus 3D7) was 0.3. The molecule also gave an IC50 in the data set with HepG2 of 4780 nM. Further, the “SI, selectivity index =” value in the data set on HepG2 is reported as 810. Besides, the “Projected t1/2” value in data set [3] amounted to 43.2 min. For the same molecule, the “Clint” value in data set [3] (mouse, microsomes) came out at 32.1 µL/min/mg. Moreover, the “% remaining after 60 min” value in data set [3] (mouse, microsomes, 1 h) is given as 38.2%.
As to `CN(C)CCNc1cc(/C=C/c2ccncc2)nc2ccc(Cl)cc12` [Compound 50], the EC50 in data set [1] (read-out: Antiplasmodium activity 3D7 (converted)) is 56.6 nM; in data set [2] (setting [6]) it was 28.8 ± 5 nM; in data set [2] (Dd2 strain, read-out: EC50), 28.8 ± 5 nM; in data set [2] (setting [7]) it was 28.8 nM. In data set [2], the “RI, resistance index =” value is 0.6 0.6 0.5 0.3 0.5. For the same molecule, in the data set with HepG2, the “SI, selectivity index =” value stood at 212. Moreover, in the data set with HepG2 (setting [8]), the IC50 was 6110 nM. The “Clint” value in data set [3] (mouse liver microsomes) amounted to 62.2 µL/min/mg. The “Projected t1/2” value in data set [3] (mouse liver microsomes (MLM)) amounted to 22.3 min. Also, the “% remaining after 60 min” value in data set [3] (setting [9]) is reported as 15.5%.
With `Fc1ccc(/C=C/c2cc(NCc3ccccn3)c3cc(Cl)ccc3n2)cc1` [Compound 72], the EC50 was 248 ± 35.1 nM in data set [1] (setting [10]); 156 ± 34.5 nM in data set [2] (setting [6]); 156 ± 34.5 nM in data set [2] (Dd2 strain, read-out: EC50); 156 ± 34.5 nM in data set [2] (setting [7]). Also, the “RI, resistance index =” value in data set [2] was determined as 0.6. In the data set on HepG2, the IC50 came out at 19800 ± 3270 nM. Also, the “SI, selectivity index =” value with HepG2 came to 127. In addition, the “Projected t1/2” value in data set [3] is reported as 65.3 min. In addition, in data set [3] (mouse, microsomes), the “Clint” value was found to be 21.2 µL/min/mg. Also, the “% remaining after 60 min” value in data set [3] (mouse, microsomes, 1 h) stood at 52.9%.
Turning to `Fc1ccc(/C=C/c2cc(NCCN3CCOCC3)c3cc(Cl)ccc3n2)cc1` [Compound 81], the EC50 in data set [1] (setting [10]) is 41.8 ± 12.7 nM; in data set [2] (setting [6]), 24.2 ± 0.8 nM; in data set [2] (setting [7]), 24.2 ± 0.8 nM. For the same molecule, the “RI, resistance index =” value in data set [2] amounted to 0.6. Also, the IC50 with HepG2 was 17200 ± 3300 nM. Further, the “SI, selectivity index =” value in the data set with HepG2 was 711.
In the case of `Fc1ccc(/C=C/c2cc(NCCCCN3CCOCC3)c3cc(Cl)ccc3n2)cc1` [Compound 92], the EC50 in data set [1] (setting [10]) was 6.9 ± 1.3 nM; in data set [2] (setting [6]) it was 2.4 ± 1.1 nM; in data set [2] (setting [7]), 2.4 ± 1.1 nM. The IC50 in the data set with HepG2 is 3550 ± 384 nM. For the same molecule, the “SI, selectivity index =” value in the data set on HepG2 came to 1478. Besides, the “Projected t1/2” value in data set [3] stood at 22.2 min. The “Clint” value in data set [3] (mouse, microsomes) came to 62.4 µL/min/mg. Further, the “% remaining after 60 min” value in data set [3] (mouse, microsomes, 1 h) came out at 15.4%.
As for `Clc1ccc2nc(/C=C/c3ccncc3)cc(NCCCCN3CCOCC3)c2c1` [Compound 93], the EC50 in data set [1] (setting [10]) is 20.8 nM; in data set [2] (setting [6]) it was 9.9 ± 1.3 nM; in data set [2] (Dd2 strain, read-out: EC50) it was 9.9 ± 1.3 nM; in data set [2] (setting [7]), 9.9 nM. The IC50 in the data set on HepG2 was 5670 nM. Also, in the data set on HepG2, the “SI, selectivity index =” value worked out at 561. In data set [3], the “Projected t1/2” value is reported as 14.4 min. In data set [3] (mouse, microsomes), the “Clint” value came to 96.2 µL/min/mg. Moreover, the “% remaining after 60 min” value in data set [3] (mouse, microsomes, 1 h) was 5.62%.
Consider `CN1CCN(CCCCNc2cc(/C=C/c3ccncc3)nc3ccc(Cl)cc23)CC1` [Compound 96], for which the EC50 is 36.1 ± 11.3 nM in data set [1] (setting [10]), 33.4 ± 5.4 nM in data set [2] (setting [6]) and 33.4 ± 5.4 nM in data set [2] (setting [7]). In addition, in data set [2], the “RI, resistance index =” value was determined as 0.9. The IC50 with HepG2 was 8380 ± 2580 nM. Further, in the data set on HepG2, the “SI, selectivity index =” value stood at 251.
`FC(F)(F)c1ccc(/C=C/c2cc(NCCCCN3CCOCC3)c3cc(Cl)ccc3n2)cc1` [Compound 98]: the figures for the EC50 in data set [1] (setting [10]), in data set [2] (setting [6]) and in data set [2] (setting [7]) were 73.8 ± 9.7 nM, 30.7 ± 5.2 nM and 30.7 ± 5.2 nM, respectively. The same molecule displayed an IC50 with HepG2 of 10200 ± 2390 nM. The “SI, selectivity index =” value in the data set with HepG2 worked out at 332. In addition, the “Projected t1/2” value in data set [3] is 64.9 min. In addition, in data set [3] (mouse, microsomes), the “Clint” value came out at 21.4 µL/min/mg. The “% remaining after 60 min” value in data set [3] (mouse, microsomes, 1 h) is 52.7%.
Take `Fc1ccc(/C=C/c2cc(NCCCCN3CCOCC3)c3cc(Cl)ccc3n2)cc1F` [Compound 105]: the EC50 in data set [1] (setting [10]) was 27.6 nM; in data set [2] (setting [6]) it was 25.5 ± 6.1 nM; in data set [2] (setting [7]), 25.5 nM. Further, the “SI, selectivity index =” value with HepG2 was determined as 241. Besides, the IC50 in the data set with HepG2 (setting [8]) was 6140 nM. In addition, in data set [3] (mouse liver microsomes), the “Clint” value was 53.7 µL/min/mg. In data set [3] (mouse liver microsomes (MLM)), the “Projected t1/2” value is given as 25.8 min. Moreover, the “% remaining after 60 min” value in data set [3] (setting [9]) worked out at 19.9%.
As for `Fc1cc(F)c(/C=C/c2cc(NCCCCN3CCOCC3)c3cc(Cl)ccc3n2)cc1F` [Compound 107], the EC50 in data set [2] (setting [6]) turned out to be 197 ± 39.7 nM.
Same read-out and setting: with `Fc1cc(/C=C/c2cc(NCCCCN3CCOCC3)c3cc(Cl)ccc3n2)cc(F)c1F` [Compound 108] the figure was 130 ± 34.9 nM.
As for `Fc1cnccc1/C=C/c1cc(NCCCCN2CCOCC2)c2cc(Cl)ccc2n1` [Compound 109], the EC50 in data set [2] (Dd2 strain, read-out: EC50) was determined as 79.6 ± 11.8 nM.
Take `Fc1ccc(/C=C/c2cc(NCCCCN3CCOCC3)c3cc(Cl)ccc3n2)cn1` [Compound 110]: in data set [2] (setting [6]), the EC50 worked out at 54.6 ± 16.5 nM. In addition, the IC50 in data set [2] (Dd2 strain) turned out to be 54.6 ± 16.5 nM.
With `Fc1ccc(/C=C/c2cc(NCCCCN3CCOCC3)c3cc(Cl)ccc3n2)nc1` [Compound 111], the EC50 in data set [2] (setting [6]) turned out to be 73.1 ± 11.9 nM.
Consider `Fc1cccnc1/C=C/c1cc(NCCCCN2CCOCC2)c2cc(Cl)ccc2n1` [Compound 112], for which the EC50 in data set [2] (Dd2 strain, read-out: EC50) was found to be 197 ± 16.5 nM.
For `Fc1ccc(/C=C/C=C/c2cc(NCCCCN3CCOCC3)c3cc(Cl)ccc3n2)cc1` [Compound 113], the EC50 in data set [2] (setting [6]) is 96.5 ± 24.4 nM.
On the same count and under the same terms, with `Clc1ccc2nc(/C=C/C=C/c3ccccc3)cc(NCCCCN3CCOCC3)c2c1` [Compound 114] the figure was 143 ± 18.6 nM; with `Clc1ccc2nc(-c3ccccc3)cc(NCCCCN3CCOCC3)c2c1` [Compound 119], 423 ± 62.7 nM.
Still for that read-out and setting: in the case of `Clc1ccc2nc(-c3ccncc3)cc(NCCCCN3CCOCC3)c2c1` [Compound 120] it was 796 ± 161 nM.
Take `C[C@H]1[C@@H](O)O[C@@H]2O[C@@]3(C)CC[C@H]4[C@H](C)CC[C@@H]1[C@@]24OO3` [DHA, dihydroartemisinin, reference compound]: the IC50 in data set [4] turned out to be 37.4 ± 8.9 nM; in data set [5], 17.4 ± 3.7 nM.
The corresponding values for `CN(C)c1ccc2nc3ccc(=[N+](C)C)cc-3sc2c1` [Methylene blue, reference compound] are 107 ± 46.3 nM and 74.7 ± 21.9 nM.
